Measurements taken from the supplement of paper PMC11451515.

Tested on: NOMO1
Assay: cell viability relative to DMSO control; higher = less cytotoxic
Details: 48 h
Method in brief: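 Leukemia cells (NOMO1 or SEM, 500 cells/well; P12-Ichikawa, 1000 cells/well) were seeded in 5 μl in 1536-well plates after at least four passages of adaptation to each medium. They received library compounds in DMSO by pin dosing, 11 threefold points from 47 μM to 0.79 nM. Luminescence with CellTiter-Glo One was read after 48 h at 37°C. Viability is stated per plate relative to DMSO wells, with cell-free wells as background.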

[1] = HPLM + 10% dialyzed FBS, 0.000781 µM
[2] = HPLM + 10% dialyzed FBS, 0.00234 µM
[3] = HPLM + 10% dialyzed FBS, 0.00702 µM
[4] = HPLM + 10% dialyzed FBS, 0.0211 µM
[5] = HPLM + 10% dialyzed FBS, 0.0632 µM
[6] = HPLM + 10% dialyzed FBS, 0.19 µM
[7] = HPLM + 10% dialyzed FBS, 0.569 µM
[8] = HPLM + 10% dialyzed FBS, 1.71 µM
[9] = HPLM + 10% dialyzed FBS, 5.12 µM
[10] = HPLM + 10% dialyzed FBS, 15.4 µM
[11] = HPLM + 10% dialyzed FBS, 46.1 µM
[12] = RPMI 5 mM glucose + 10% FBS, 0.000781 µM
[13] = RPMI 5 mM glucose + 10% FBS, 0.00234 µM
[14] = RPMI 5 mM glucose + 10% FBS, 0.00702 µM
[15] = RPMI 5 mM glucose + 10% FBS, 0.0211 µM
[16] = RPMI 5 mM glucose + 10% FBS, 0.0632 µM
[17] = RPMI 5 mM glucose + 10% FBS, 0.19 µM
[18] = RPMI 5 mM glucose + 10% FBS, 0.569 µM
[19] = RPMI 5 mM glucose + 10% FBS, 1.71 µM
[20] = RPMI 5 mM glucose + 10% FBS, 5.12 µM
[21] = RPMI 5 mM glucose + 10% FBS, 15.4 µM
[22] = RPMI 5 mM glucose + 10% FBS, 46.1 µM
[23] = RPMI 5 mM glucose + 10% dialyzed FBS, 0.000781 µM
[24] = RPMI 5 mM glucose + 10% dialyzed FBS, 0.00234 µM
[25] = RPMI 5 mM glucose + 10% dialyzed FBS, 0.00702 µM
[26] = RPMI 5 mM glucose + 10% dialyzed FBS, 0.0211 µM
[27] = RPMI 5 mM glucose + 10% dialyzed FBS, 0.0632 µM
[28] = RPMI 5 mM glucose + 10% dialyzed FBS, 0.19 µM
[29] = RPMI 5 mM glucose + 10% dialyzed FBS, 0.569 µM
[30] = RPMI 5 mM glucose + 10% dialyzed FBS, 1.71 µM
[31] = RPMI 5 mM glucose + 10% dialyzed FBS, 5.12 µM
[32] = RPMI 5 mM glucose + 10% dialyzed FBS, 15.4 µM
[33] = RPMI 5 mM glucose + 10% dialyzed FBS, 46.1 µM

Row | SMILES | cell viability [1] | cell viability [2] | cell viability [3] | cell viability [4] | cell viability [5] | cell viability [6] | cell viability [7] | cell viability [8] | cell viability [9] | cell viability [10] | cell viability [11] | cell viability [12] | cell viability [13] | cell viability [14] | cell viability [15] | cell viability [16] | cell viability [17] | cell viability [18] | cell viability [19] | cell viability [20] | cell viability [21] | cell viability [22] | cell viability [23] | cell viability [24] | cell viability [25] | cell viability [26] | cell viability [27] | cell viability [28] | cell viability [29] | cell viability [30] | cell viability [31] | cell viability [32] | cell viability [33]
1 | CCCCCCCCOc1ccccc1C(=O)Nc1ccc(C(=O)OCC[N+](C)(CC)CC)cc1 | 101% | 104% | 103% | 104% | 110% | 99.5% | 85.8% | 100% | 78.1% | 88.1% | 28.7% | 84.6% | 94.7% | 93.2% | 83.8% | 93.4% | 86.4% | 90.1% | 83.7% | 82% | 81% | 21.7% | 92.8% | 93.5% | 96.6% | 90.1% | 98.3% | 91.9% | 83.7% | 84.4% | 73.9% | 88.8% | 31.8%
2 | CCCc1nc2c(C)cc(-c3nc4ccccc4n3C)cc2n1Cc1ccc(-c2ccccc2C(=O)O)cc1 | 117% | 102% | 112% | 110% | 139% | 140% | 136% | 138% | 127% | 134% | 134% | 123% | 123% | 139% | 126% | 150% | 144% | 131% | 143% | 150% | 145% | 132% |  |  |  |  |  |  |  |  |  |  | 
3 | NCCCC(O)(P(=O)(O)O)P(=O)(O)O.O.O.O.[Na+] |  |  |  |  |  |  |  |  |  |  |  | 102% |  |  |  | 117% | 117% | 102% | 106% | 102% |  |  |  | 116% | 107% | 123% | 115% | 110% | 111% | 113% | 114% | 87.8% | 61.7%
4 | C/C(=C\c1csc(C)n1)[C@@H]1C[C@@H]2O[C@]2(C)CCC[C@H](C)[C@H](O)[C@@H](C)C(=O)C(C)(C)[C@@H](O)CC(=O)O1 | 22.6% | 28.6% | 32% | 27.8% | 29.6% | 27.8% | 29.6% | 35% | 25.2% | 27.6% | 31.3% | 14.1% | 18.3% | 20.6% | 18.3% | 20.3% | 15.9% | 16.8% | 19.2% | 15.3% | 14.5% | 14.9% | 18.1% | 22.2% | 22.9% | 39.2% | 23.9% | 24.5% | 21.8% | 21.4% | 21.9% | 25% | 20%
5 | COCCCOc1ccnc(C[S+]([O-])c2nc3ccccc3[nH]2)c1C (stereo unspecified) | 92.5% | 116% | 113% | 123% | 123% | 122% | 116% | 127% | 130% | 119% | 117% | 126% | 118% | 110% | 109% | 131% | 124% | 105% | 126% | 115% | 118% | 124% | 108% | 114% | 119% | 120% | 133% | 119% | 119% | 121% | 120% | 115% | 129%
6 | CNC(=O)c1ccc(N2C(=S)N(c3ccc(C#N)c(C(F)(F)F)c3)C(=O)C2(C)C)cc1F | 87.7% | 114% | 105% | 125% | 117% | 127% | 120% | 115% | 143% | 127% | 111% | 93% | 124% | 121% | 118% | 125% | 111% | 111% | 121% | 123% | 121% | 115% | 102% | 112% | 103% | 113% | 121% | 116% | 124% | 126% | 115% | 121% | 114%
7 | C[C@@H](NCc1cc2ccccc2[nH]1)c1cccc2ccccc12 | 88.3% | 82.2% | 91.6% | 90.6% | 94.6% | 95.5% | 91.9% | 95.2% | 97.1% | 92.3% | 100% | 84.3% | 87.5% | 80.1% | 86.1% | 90.5% | 88.1% | 97.4% | 89.8% | 95.5% | 94.5% | 91.8% | 93.6% | 89.8% | 89% | 87.8% | 84.2% | 102% | 102% | 93.7% | 97% | 92.3% | 102%
8 | Cc1ccc(NC(=O)c2cccc(N(C)C)c2)cc1NC(=O)c1ccc(O)cc1 | 127% | 119% | 115% | 121% | 151% | 136% | 146% | 122% | 120% | 136% | 105% | 114% | 110% | 107% | 108% | 113% | 109% | 121% | 118% | 118% | 121% | 106% | 110% | 114% | 115% | 121% | 116% | 110% | 116% | 126% | 138% | 108% | 107%
9 | CO[C@H]1/C=C/O[C@@]2(C)Oc3c(C)c(O)c4c(O)c(c(/C=N/N5CCN(C)CC5)c(O)c4c3C2=O)NC(=O)/C(C)=C\C=C\[C@H](C)[C@H](O)[C@@H](C)[C@@H](O)[C@@H](C)[C@H](OC(C)=O)[C@@H]1C |  |  |  |  |  |  |  |  |  |  |  | 111% | 123% | 117% | 127% | 129% | 118% | 125% | 123% | 111% | 102% | 98.5% | 118% | 119% | 129% | 115% | 122% | 117% | 104% | 112% | 119% | 96.1% | 79.6%
10 | O=C(C1CC1)N1CC[C@@H](Cn2c(-c3ccc(-c4ccc5occc5c4)cc3)nc3cnccc32)C1 | 93.7% | 128% | 117% | 112% | 122% | 135% | 121% | 134% | 117% | 123% | 82.6% | 117% | 101% | 104% | 102% | 111% | 104% | 106% | 115% | 119% | 109% | 113% | 101% | 115% | 107% | 129% | 120% | 112% | 119% | 114% | 109% | 110% | 100%
11 | CN1CCN(Cc2ccc(NC(=O)Nc3ccc(Oc4cc(NC(=O)C5CC5)ncn4)cc3)cc2C(F)(F)F)CC1 | 104% | 104% | 120% | 129% | 143% | 141% | 12% | 4.6% | 3.07% | 2.49% | 0.956% | 110% | 125% | 118% | 125% | 138% | 149% | 22% | 8.28% | 6.02% | 4.38% | 2.32% | 106% | 122% | 114% | 125% | 146% | 161% | 18% | 6.64% | 5.97% | 3.84% | 2.43%
12 | CC1(C)Cc2c(sc(NC(=S)NC(=O)c3ccccc3)c2C(=O)O)CO1 | 102% | 107% | 100% | 117% | 120% | 114% | 115% | 112% | 114% | 94.5% | 95.1% | 115% | 111% | 105% | 101% | 105% | 96.6% | 118% | 106% | 115% | 101% | 91.5% | 87.7% | 102% | 96.3% | 108% | 109% | 103% | 121% | 109% | 101% | 101% | 102%
13 | CN1/C=C(\N=C(NC2=CC=C(C=C2)C(=O)N3CCOCC3)/C1=O)/C4=C(C)C(=CC=C4)NC(=O)C5=CC=C(C=C5)C(C)(C)C | 91.6% | 114% | 102% | 85.2% | 103% | 111% | 112% | 110% | 97.2% | 94.2% | 70.7% | 91.4% | 84.4% | 99.5% | 89.5% | 98.3% | 88.7% | 100% | 84.9% | 80.6% | 88.1% | 85.1% | 97.6% | 92.9% | 96.2% | 95.9% | 106% | 100% | 107% | 94.6% | 93.1% | 78.4% | 77.2%
14 | CC(Cc1ccc(O)c(O)c1)(NN)C(=O)O (stereo unspecified) | 104% | 109% | 102% | 103% | 117% | 113% | 107% | 99.3% | 115% | 121% | 92.3% | 114% | 118% | 113% | 126% | 115% | 103% | 105% | 109% | 112% | 110% | 106% | 114% | 106% | 129% | 128% | 123% | 106% | 103% | 99.8% | 116% | 106% | 94.7%
15 | COC/1=C/[C@@H]2[C@@H]3CC4=C(C(=C(OC)C=C4)O)[C@]2(CCN3C)CC1=O | 117% | 123% | 151% | 147% | 151% | 135% | 147% | 161% | 135% | 131% | 113% | 118% | 124% | 135% | 165% | 144% | 148% | 148% | 139% | 153% | 141% | 126% |  |  |  |  |  |  |  |  |  |  | 
16 | CC(C)C(=O)Nc1ncc(-c2cc(C(F)F)nn2-c2c(Cl)cccc2Cl)s1 | 116% | 123% | 112% | 137% | 152% | 125% | 148% | 132% | 133% | 133% | 83.9% |  |  |  |  |  |  |  |  |  |  |  |  |  |  |  |  |  |  |  |  |  | 
